{"source": "patent US9687459B2", "about": "“Aminocyclobutane derivatives, method for preparing same and the use thereof as drugs” (priority 2012, dated 2017)", "key": {"[1]": {"target": "T1, recombinant human NMDA receptors constructed from NR1 and NR2B sub-units (Homo sapiens, UniProt Q05586+Q13224)", "T1 construct": "expressed in transfected cells; host or cells: Xenopus laevis oocytes injected with cRNA transcribed from pGEMHE constructs", "T1 sequence (Q13224 27-1484, other chains not shown)": "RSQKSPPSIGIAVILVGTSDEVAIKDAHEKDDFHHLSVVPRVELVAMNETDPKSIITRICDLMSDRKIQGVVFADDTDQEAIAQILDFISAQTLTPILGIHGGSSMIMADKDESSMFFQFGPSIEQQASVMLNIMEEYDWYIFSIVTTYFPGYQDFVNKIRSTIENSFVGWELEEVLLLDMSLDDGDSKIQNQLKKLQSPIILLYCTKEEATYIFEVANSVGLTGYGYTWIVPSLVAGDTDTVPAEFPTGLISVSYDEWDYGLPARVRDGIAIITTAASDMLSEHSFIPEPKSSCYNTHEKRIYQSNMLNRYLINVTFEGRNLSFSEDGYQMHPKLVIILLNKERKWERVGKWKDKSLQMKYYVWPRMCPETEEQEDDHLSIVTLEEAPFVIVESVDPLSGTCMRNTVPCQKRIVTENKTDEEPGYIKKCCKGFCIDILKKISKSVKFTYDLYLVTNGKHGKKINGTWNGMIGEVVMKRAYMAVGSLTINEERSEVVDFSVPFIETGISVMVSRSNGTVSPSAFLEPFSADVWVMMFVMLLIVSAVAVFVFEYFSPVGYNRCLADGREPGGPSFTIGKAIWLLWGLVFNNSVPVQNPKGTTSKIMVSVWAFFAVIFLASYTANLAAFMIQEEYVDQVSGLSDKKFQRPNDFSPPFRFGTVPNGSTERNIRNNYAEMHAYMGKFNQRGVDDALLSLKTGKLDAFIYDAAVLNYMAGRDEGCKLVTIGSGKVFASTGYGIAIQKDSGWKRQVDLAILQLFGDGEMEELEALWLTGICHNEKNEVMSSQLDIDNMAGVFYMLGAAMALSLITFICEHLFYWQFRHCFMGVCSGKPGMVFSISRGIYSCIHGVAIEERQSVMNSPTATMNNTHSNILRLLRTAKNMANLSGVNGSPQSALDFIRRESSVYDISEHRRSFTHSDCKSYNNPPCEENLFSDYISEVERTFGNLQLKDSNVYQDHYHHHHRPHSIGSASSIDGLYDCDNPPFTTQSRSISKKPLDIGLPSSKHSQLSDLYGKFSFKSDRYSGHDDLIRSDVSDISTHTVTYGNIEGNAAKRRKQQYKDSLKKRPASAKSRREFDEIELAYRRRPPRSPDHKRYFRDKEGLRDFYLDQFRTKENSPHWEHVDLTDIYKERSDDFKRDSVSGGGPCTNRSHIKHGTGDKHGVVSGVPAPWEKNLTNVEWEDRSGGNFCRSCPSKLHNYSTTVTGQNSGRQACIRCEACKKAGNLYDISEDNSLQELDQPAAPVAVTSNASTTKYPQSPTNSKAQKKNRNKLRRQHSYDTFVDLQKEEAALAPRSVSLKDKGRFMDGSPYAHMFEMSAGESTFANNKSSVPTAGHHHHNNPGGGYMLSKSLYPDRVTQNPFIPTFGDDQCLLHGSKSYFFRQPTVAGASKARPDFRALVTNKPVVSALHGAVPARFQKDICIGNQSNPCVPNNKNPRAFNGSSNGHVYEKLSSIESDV", "assay": "Inhibition of NMDA current in Xenopus ovocytes, two electrode voltage clamp", "type": "cell-based", "from_the_text": "We examined the effects of the compounds of the invention on inhibition of the NMDA current in Xenope (Xenopus laevis) expressing recombinant human NMDA receptors constructed from NR1 and NR2B sub-units. The currents produced by stimulation of these receptors by means of endogenous agonists were studied according to the two electrode voltage clamp technique reported by Planells-Cases et al., 2002, J. Pharmacol. Exp. Ther., 302, 163-173.\nProtocol: ovocytes were surgically removed from adults xenopes, enzymatically defolliculated and stored at 17° C. in a solution containing: 96 mM of NaCl, 2 mM of KCl, 1 mM of MgCl2, 1.8 mM of CaCl2 and 5 mM of HEPES at pH 7.5 (NaOH) and 50 mg/L of gentamycin (Heusler et al., 2005, Neuropharmacology, 49, 963-976). Complementary DNA (cDNA) coding for the NR1 sub-unit was cloned by PCR using primers targeted for start and end codons in the published sequence (Genebank access number M_007327). cDNA coding for the NR2B sub-unit was synthesised by Eurogentec (Seraing, Belgium) according to the published sequence (gene bank access number NM_000834). The NR1 and NR2B cDNA was then sub-cloned in the pGEMHE high expression carrier for in vitro transcription of cDNA. cRNA coding for NR1 and NR2B was prepared according to the method described by Heusler et al. (already cited). Aliquots of the cRNA solution were injected into the ovocytes ([…] for NR1 and 40-1000 pg/ovocyte for NR2B). Each ovocyte was injected with 100 nL of a solution containing: 4 mM of Na^+BAPTA (pH 7.2) in order to block all residual chlorine currents. After stabilisation, NMDA currents were activated by superfusion of glutamate and glycine each at a concentration of 10 μM. The compounds to be tested were then superfused in a Ringer Ba^++ solution at increasing concentrations in the presence of glutamate and glycine (4 to 5 concentrations were tested per ovocyte). The concentration-response codes obtained are analysed for each ovocyte by non-linear regression and a pIC50 value was calculated. pIC50 designates the negative logarithm of the compound concentration tested needed to reduce the amplitude of the NMDA current by half."}, "[2]": {"tested_on": "acute inflammatory pain model in the rat", "settings": "for Paw licking % reduction at 40 mg/kg / Paw licking inhibition at 40 mg/kg (in words): 40 mg/kg ip, late phase; for Paw licking MSD (minimum significant dose): ip 15 min before formaldehyde, late phase 22.5-27.5 min"}, "[3]": {"tested_on": "forced swimming model in the rat", "assay": "Forced swimming test, immobility time", "type": "in vivo", "settings": "for Immobility time % reduction at 20 mg/kg: 20 mg/kg ip; for ED50: ip 30 min before test, dose reducing immobility time by half relative to controls", "procedure": "This height allows the rats to swim or to float without their paws touching the base of the cylinder. 24 hours before the test day, the rats are placed in the cylinder for 15 min, after which time they no longer attempt to escape and remain immobile at the surface. On the test day, the compound to be tested or the carrier is injected (ip) into the animal which is placed in the cylinder 30 min later. The duration of immobility (defined when the rat simply floats and only makes small movements to stay at the surface) is measured with an accuracy of 0.1 s for 5 minutes."}, "[4]": {"tested_on": "pre-pulse inhibition of the jolt reflex in the rat", "assay": "Pre-pulse inhibition test for the jolt reflex (PPI)", "type": "in vivo", "settings": "FIG. 1", "from_the_text": "We have already highlighted the importance of normalising the NMDA receptor function, in other words blocking its excessive activity without interfering, or interfering as little as possible, with its normal physiological functioning. As a marker of the interaction between the products of the invention and the normal functioning of the NMDA receptors, we chose the pre-pulse inhibition test for the jolt reflex (PPI). This test represents a measurement of the organism's capacity to filter non-essential information. Non-competitive and competitive antagonists as well as channel blockers reduce PPI in the rat (Depoortere et al., 1999, Behav. Pharmacol., 10, 51-62), such a reduction being considered to be predictive of the psychotomimetic effects of NMDA antagonists in humans.\nProtocol: Male rats (Sprague-Dawley Iffa Credo, Les Oncins, France) were placed in 18.4 cm by 8.8 cm diameter cylinders resting on a base below which a piezoelectric accelerometer is fixed to act as a detector of the jolt reaction. This is enclosed in a box with a loudspeaker attached to the ceiling to deliver sound pulses and pre-pulses, and is acoustically isolated (SR LAB, San Diego Instruments, San Diego, USA). All the events are controlled by means of software. […] Three types of sound stimuli (white noise) are delivered; 1) a pulse of 118 dB (P, duration 40 msec); 2) a pre-pulse of 78 dB (duration 20 msec) followed by a pulse of 118 dB (pP); and 3) no pre-pulse or pulse (NP). The interval between the beginning of the pre-pulse and the beginning of the pulse is 100 msec, with background noise at 70 dB. The jolt reaction is recorded for 100 ms, 100 ms after the beginning of the stimulus (pP or NP) by a numerical/analogue acquisition card (12 bits). The session starts with a stimulus-free period of 5 min after which animals are exposed to 10 P (separated on average by 15 s and intended to stabilise the jolt reaction). The reactions recorded with these 10 P are not used for the calculation. After this, 10 P, 10 pP and 3 NP are delivered in a semi-random order with an average interval of 15 s in between. At the end of this pre-test, rats undergo an ip injection of the compounds to be tested or physiological serum as a control and are returned to their cages. The actual test session (similar on every point to the pre-test) is carried out 60 minutes later. The percentage inhibition of the pre-pulse is calculated using data from this test session according to the formula: (median amplitude P−median amplitude pP)×100/(median amplitude P)."}, "[5]": {"settings": "ovocytes expressing human NR1/NR2B, glutamate and glycine each 10 μM, read-out: Inhibition of NMDA current pIC50 (converted)"}}, "note": "“And” between values parts separate entries of the source, which are not always exact repeats. Equal values may be shown once. Read-outs that look alike come from different tables or passages of the source."}
{"smiles": "CCN(CC)C(=O)[C@]1(c2cccc(Cl)c2)C[C@@H](N)C1", "note": "[Compound 1e, trans-3-amino-N,N-diethyl-1-(3-chlorophenyl)-cyclobutanecarboxamide]", "values": [{"measurement": "IC50", "setting": "[1]", "value": 79.4, "unit": "nM"}, {"measurement": "Paw licking % reduction at 40 mg/kg", "setting": "[2]", "value": 100, "unit": "%"}, {"measurement": "Paw licking inhibition at 40 mg/kg (in words)", "setting": "[2]", "value": "completely inhibited"}, {"measurement": "Paw licking MSD (minimum significant dose)", "setting": "[2]", "value": 10, "unit": "mg/kg"}, {"measurement": "Immobility time % reduction at 20 mg/kg", "setting": "[3]", "value": 77, "unit": "%"}, {"measurement": "ED50", "setting": "[3]", "value": 15, "unit": "mg/kg"}]}
{"smiles": "CCN(CC)C(=O)[C@]1(c2ccccc2)C[C@@H](N)C1", "note": "[Compound 1a1, trans-3-amino-N,N-diethyl-1-phenylcyclobutanecarboxamide]", "values": [{"measurement": "IC50", "setting": "[1]; [5]", "value": 501, "unit": "nM"}, {"measurement": "Reduction in PPI at 20 mg/kg", "setting": "[4]; 20 mg/kg ip, test 60 min after injection", "value": 30, "unit": "%"}, {"measurement": "PPI reduction at 40 mg/kg (in words)", "setting": "[4]; 40 mg/kg", "value": "modest"}, {"measurement": "Dose from which PPI is disrupted", "setting": "[4]; ip", "value": "≥ 20", "unit": "mg/kg"}, {"measurement": "Paw licking % reduction at 40 mg/kg", "setting": "[2]", "value": 100, "unit": "%"}, {"measurement": "Paw licking inhibition at 40 mg/kg (in words)", "setting": "[2]", "value": "completely inhibited"}, {"measurement": "Paw licking MSD (minimum significant dose)", "setting": "[2]", "value": 10, "unit": "mg/kg"}]}
{"smiles": "CCN(CC)C(=O)[C@]1(c2ccccc2F)C[C@@H](N)C1", "note": "[Compound 1b, trans-3-amino-N,N-diethyl-1-(2-fluorophenyl)-cyclobutanecarboxamide]", "values": [{"measurement": "IC50", "setting": "[1]; [5]", "value": 501, "unit": "nM"}]}
{"smiles": "CNC1(c2ccccc2Cl)CCCCC1=O", "note": "(stereo not drawn) [ketamine, reference compound]", "values": [{"measurement": "IC50", "setting": "[1]", "value": 794, "unit": "nM"}, {"measurement": "Effect on PPI at 20 mg/kg (in words)", "setting": "[4]; 20 mg/kg ip", "value": "total disappearance of PPI"}, {"measurement": "Paw licking % reduction at 40 mg/kg", "setting": "[2]; 40 mg/kg", "value": "74% and 75%"}, {"measurement": "Paw licking MSD (minimum significant dose)", "setting": "[2]", "value": 40, "unit": "mg/kg"}, {"measurement": "Immobility time % reduction at 20 mg/kg", "setting": "[3]", "value": 50, "unit": "%"}, {"measurement": "ED50", "setting": "[3]", "value": 20, "unit": "mg/kg"}]}
{"smiles": "CCN(CC)C(=O)[C@]1(c2cccc(OC)c2)C[C@@H](N)C1", "note": "[Compound 1d, trans-3-amino-N,N-diethyl-1-(3-methoxyphenyl)-cyclobutanecarboxamide]", "values": [{"measurement": "IC50", "setting": "[1]; [5]", "value": 398, "unit": "nM"}]}
{"smiles": "CCN(CC)C(=O)[C@]1(c2cccc(F)c2)C[C@@H](N)C1", "note": "[Compound 1c, trans-3-amino-N,N-diethyl-1-(3-fluorophenyl)-cyclobutanecarboxamide]", "values": [{"measurement": "IC50", "setting": "[1]; [5]", "value": 158, "unit": "nM"}, {"measurement": "Immobility time % reduction at 20 mg/kg", "setting": "[3]", "value": 83, "unit": "%"}, {"measurement": "ED50", "setting": "[3]", "value": 13, "unit": "mg/kg"}]}
